# Target: T1, SARM1 (50-724) (Homo sapiens, UniProt Q6SZW1)
# T1 construct: Purified SARM1 (50-724) with a final concentration of 2 nM was pre-incubated with a test compound
# T1 sequence (Q6SZW1 50-724): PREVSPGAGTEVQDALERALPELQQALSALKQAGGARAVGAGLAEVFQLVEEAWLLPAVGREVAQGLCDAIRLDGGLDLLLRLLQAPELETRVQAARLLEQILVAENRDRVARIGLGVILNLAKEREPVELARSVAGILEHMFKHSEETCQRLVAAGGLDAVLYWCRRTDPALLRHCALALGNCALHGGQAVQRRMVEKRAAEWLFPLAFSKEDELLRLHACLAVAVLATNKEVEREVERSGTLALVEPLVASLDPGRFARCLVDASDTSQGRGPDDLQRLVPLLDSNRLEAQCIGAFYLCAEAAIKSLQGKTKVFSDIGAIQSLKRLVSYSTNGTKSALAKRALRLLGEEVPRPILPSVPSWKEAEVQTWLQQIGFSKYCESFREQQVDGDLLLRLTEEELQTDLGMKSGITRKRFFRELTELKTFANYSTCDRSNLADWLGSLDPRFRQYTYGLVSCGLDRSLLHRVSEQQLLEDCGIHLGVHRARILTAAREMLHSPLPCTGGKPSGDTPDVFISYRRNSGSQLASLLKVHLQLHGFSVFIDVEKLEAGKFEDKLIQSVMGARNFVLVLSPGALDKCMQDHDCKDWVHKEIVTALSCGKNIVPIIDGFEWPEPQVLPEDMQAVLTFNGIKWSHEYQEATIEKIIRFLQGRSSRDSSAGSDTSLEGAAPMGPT
# Test: SARM1 (50-724) enzymatic assay (LC-MS/MS)
# Format: biochemical
# Conditions: Purified SARM1 (50-724) 2 nM, NMN as activator, NAD+ as substrate, 1 h at room temperature, read-out: IC50 (SARM1 inhibitory activity)
# Summary of the method: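 Human SARM1 (50-724), 2 nM, pre-incubated 15 min at room temperature with compound in Dulbecco's PBS. Reaction started with 200 µM NMN (activator) plus […] NAD^+ substrate, run 1 h at room temperature, quenched with 70% acetonitrile. Turnover quantified by LC-MS/MS; IC50 reported.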
row,SMILES,IC50 [nM]
1,"Fc1ccc(-n2cnnc2-c2nc3cc(C(F)(F)F)ccc3[nH]2)c(OC(F)(F)F)c1 [Compound 189, 2-(4-(4-fluoro-2-(trifluoromethoxy)phenyl)-4H-1,2,4-triazol-3-yl)-5-(trifluoromethyl)-1H-benzo[d]imidazole]",≤ 100
2,"Fc1cc(C(F)F)cc2nc(-c3nncn3-c3cnccc3C(F)(F)F)[nH]c12 [Compound 467, 6-(difluoromethyl)-4-fluoro-2-(4-(4-(trifluoromethyl)pyridin-3-yl)-4H-1,2,4-triazol-3-yl)-1H-benzo[d]imidazole]",≤ 100
3,"CCc1ccc2[nH]c(-c3nncn3-c3cnccc3C(F)(F)F)nc2c1 [Compound 277, 5-ethyl-2-(4-(4-(trifluoromethyl)pyridin-3-yl)-4H-1,2,4-triazol-3-yl)-1H-benzo [d]imidazole]",≤ 100
4,"O=C1CCCN1Cc1nnc(-c2nc3cc(C(F)(F)F)ccc3[nH]2)n1-c1cccc(F)c1Cl [Compound 384, 1-((4-(2-chloro-3-fluorophenyl)-5-(5-(trifluoromethyl)-1H-benzo[d]imidazol-2-yl)-4H-1,2,4-triazol-3-yl)methyl)pyrrolidin-2-one]",500 to 1000
5,"Fc1cccc(-n2cnnc2-c2nc3cc(C(F)(F)F)ccc3[nH]2)c1Cl [Example 59, 2-(4-(2-chloro-3-fluorophenyl)-4H-1,2,4-triazol-3-yl)-5-(trifluoromethyl)-1H-benzo[d]imidazole]",≤ 100
6,"CC(NC12CC(C1)C2)c1cc(F)c2[nH]c(-c3nncn3-c3cnccc3C(F)(F)F)nc2c1 (stereo not drawn) [Compound 453, N-(1-(7-fluoro-2-(4-(4-(trifluoromethyl)pyridin-3-yl)-4H-1,2,4-triazol-3-yl)-1H-benzo[d]imidazol-5-yl)ethyl)bicyclo[1.1.1]pentan-1-amine]",≤ 100
7,"CS(=O)(=O)CCc1cc(-n2cnnc2-c2nc3cc(C(F)(F)F)ccc3[nH]2)c(OC(F)(F)F)cn1 [Compound 254, 2-(4-(2-(2-(methylsulfonyl)ethyl)-5-(trifluoromethoxy)pyridin-4-yl)-4H-1,2,4-triazol-3-yl)-5-(trifluoromethyl)-1H-benzo[d]imidazole]",≤ 100

# Now from value to compound:
row,IC50 [nM],SMILES
1,> 1000,"O=S1(=O)Cc2ccc3[nH]c(-c4nncn4-c4cccc(F)c4Cl)nc3c2C1 [Compound 198, 2-(4-(2-chloro-3-fluorophenyl)-4H-1,2,4-triazol-3-yl)-6,8-dihydro-3H-thieno[3',4':3,4]benzo[1,2-d]imidazole 7,7-dioxide]"
2,≤ 100,CC(C)(O)c1ccc2[nH]c(-c3nnccc3-c3cnccc3C(F)(F)F)nc2c1 [Compound 323]
3,> 1000,"Cc1nocc1-n1cnnc1-c1nc2cc(C(F)(F)F)ccc2[nH]1 [Compound 269, 3-methyl-4-(3-(5-(trifluoromethyl)-1H-benzo[d]imidazol-2-yl)-4H-1,2,4-triazol-4-yl)isoxazole]"
4,≤ 100,"COC(C)c1ccc2[nH]c(-c3nncn3-c3ccc(F)c(F)c3Cl)nc2c1 (stereo not drawn) [Compound 155, 2-(4-(2-chloro-3,4-difluorophenyl)-4H-1,2,4-triazol-3-yl)-5-(1-methoxyethyl)-1H-benzo[d]imidazole]"
5,> 1000,"Cc1ccc2[nH]c(C3CCCN3c3cccc(Cl)c3Cl)nc2c1 (stereo not drawn) [Compound 13, 2-(1-(2,3-Dichlorophenyl)pyrrolidin-2-yl)-5-methyl-1H-benzo[d]imidazole]"
6,≤ 100,"CS(=O)(=O)Cc1cccc(OC(F)(F)F)c1-n1cnnc1-c1nc2cc(C(F)(F)F)ccc2[nH]1 [Compound 289, 2-(4-(2-((methylsulfonyl)methyl)-6-(trifluoromethoxy)phenyl)-4H-1,2,4-triazol-3-yl)-5-(trifluoromethyl)-1H-benzo[d]imidazole]"
7,> 1000,FC(F)(F)c1ccc2[nH]c(-c3nnc(OC4CSC4)n3-c3cccc(Cl)c3Cl)nc2c1 [Compound 131]
8,≤ 100,"CC1(c2ccc3[nH]c(-c4nncn4-c4cccc(F)c4Cl)nc3c2)CC(O)C1 (stereo not drawn) [Compound 191, 3-(2-(4-(2-chloro-3-fluorophenyl)-4H-1,2,4-triazol-3-yl)-1H-benzo[d]imidazol-5-yl)-3-methylcyclobutan-1-ol]"

# — patent US20260258064A1 (SIRONAX LTD., priority 2023, published 2026)
